Source: the NIST ThermoML archive (doi:10.1021/je060107n)

Experiment: mn = molality of the nth substance listed, in mol/kg
Settings: 101 kPa, Liquid; for mass density: Pycnometric method; for viscosity: Capillary tube (Ostwald / Ubbelohde) method; for speed of sound: Linear variable-path acoustic interferometer

O=[N+]([O-])[O-].O=[N+]([O-])[O-].[Mg+2] [magnesium nitrate] + O
Settings | mass density [kg/m3] | speed of sound [m/s] | viscosity [mPa·s]
306.45 K, m1 = 0.0145 | 995.89 | – | –
306.5 K, m1 = 0.896 | 1083.6 | – | –
306.5 K, m1 = 3.096 | 1266.4 | – | –
306.65 K, m1 = 0.5931 | 1054 | – | –
306.65 K, m1 = 3.501 | 1294.4 | – | –
306.7 K, m1 = 3.118 | 1267.2 | – | –
306.7 K, m1 = 3.757 | 1310.9 | – | –
306.7 K, m1 = 5.134 | 1397 | – | –
306.75 K, m1 = 4.728 | 1373.4 | – | –
306.8 K, m1 = 3.17 | 1276 | – | –
307.05 K, m1 = 0.6173 | 1056.6 | – | –
307.05 K, m1 = 4.883 | 1379.9 | – | –
307.25 K, m1 = 1.827 | 1167 | – | –
307.45 K, m1 = 4.039 | 1327.9 | – | –
307.6 K, m1 = 2.584 | 1228.1 | – | –
307.65 K, m1 = 4.97 | 1385.7 | – | –
307.7 K, m1 = 3.704 | 1307.2 | – | –
307.8 K, m1 = 2.793 | 1243.4 | – | –
307.9 K, m1 = 1.694 | 1154 | – | –
307.95 K, m1 = 0.2491 | 1020.1 | – | –
308.1 K, m1 = 4.403 | 1351 | – | –
308.15 K, m1 = 0.0145 | – | 1520.8 | 0.7364
308.15 K, m1 = 0.0528 | – | 1522.6 | 0.745
308.15 K, m1 = 0.2491 | – | 1536.2 | 0.7877
308.15 K, m1 = 0.3405 | – | 1539.2 | –
308.15 K, m1 = 0.5931 | – | – | 0.8757
308.15 K, m1 = 0.6173 | – | 1559.2 | –
308.15 K, m1 = 0.896 | – | 1578.7 | –
308.15 K, m1 = 0.9898 | – | 1585.6 | 1.005
308.15 K, m1 = 1.262 | – | 1602.4 | 1.11
308.15 K, m1 = 1.525 | – | 1621.7 | –
308.15 K, m1 = 1.827 | – | 1644.8 | 1.342
308.15 K, m1 = 2.131 | – | 1666.7 | 1.498
308.15 K, m1 = 2.493 | – | 1688 | –
308.15 K, m1 = 2.584 | – | – | 1.777
308.15 K, m1 = 2.793 | – | 1708.9 | –
308.15 K, m1 = 3.096 | – | – | 2.146
308.15 K, m1 = 3.118 | – | 1728.7 | –
308.15 K, m1 = 3.17 | – | 1735.9 | –
308.15 K, m1 = 3.329 | – | – | 2.343
308.15 K, m1 = 3.501 | – | 1752.2 | –
308.15 K, m1 = 3.704 | – | – | 2.692
308.15 K, m1 = 3.757 | – | 1770.5 | –
308.15 K, m1 = 4.039 | – | – | 3.089
308.15 K, m1 = 4.051 | – | 1781.1 | –
308.15 K, m1 = 4.285 | – | 1794.4 | –
308.15 K, m1 = 4.403 | – | 1800.6 | –
308.15 K, m1 = 4.728 | – | – | 4.262
308.15 K, m1 = 4.883 | – | 1826.2 | –
308.15 K, m1 = 4.907 | – | – | 4.654
308.15 K, m1 = 5.134 | – | 1838.4 | –
308.15 K, m1 = 5.282 | – | – | 5.506
308.35 K, m1 = 0.9898 | 1091.9 | – | –
308.4 K, m1 = 1.525 | 1138.7 | – | –
308.45 K, m1 = 1.262 | 1116 | – | –
308.55 K, m1 = 0.3405 | 1028.5 | – | –
308.7 K, m1 = 5.282 | 1404.1 | – | –
308.75 K, m1 = 3.757 | 1309.6 | – | –
308.85 K, m1 = 3.096 | 1265 | – | –
308.85 K, m1 = 4.285 | 1343.6 | – | –
308.95 K, m1 = 3.118 | 1265.8 | – | –
309 K, m1 = 0.896 | 1082.4 | – | –
309.05 K, m1 = 4.728 | 1371.9 | – | –
309.25 K, m1 = 2.131 | 1191 | – | –
309.3 K, m1 = 2.493 | 1218.8 | – | –
309.35 K, m1 = 4.883 | 1378.4 | – | –
309.4 K, m1 = 4.051 | 1326.7 | – | –
309.5 K, m1 = 0.0145 | 994.82 | – | –
309.5 K, m1 = 0.5931 | 1052.8 | – | –
309.5 K, m1 = 0.6173 | 1055.5 | – | –
309.6 K, m1 = 0.0528 | 999.02 | – | –
309.65 K, m1 = 1.827 | 1165.8 | – | –
309.75 K, m1 = 4.97 | 1384.3 | – | –
309.9 K, m1 = 2.584 | 1226.7 | – | –
309.95 K, m1 = 3.704 | 1305.7 | – | –
310.1 K, m1 = 1.694 | 1152.8 | – | –
310.15 K, m1 = 4.403 | 1349.7 | – | –
310.7 K, m1 = 0.9898 | 1090.8 | – | –
310.8 K, m1 = 0.2491 | 1019 | – | –
310.9 K, m1 = 3.096 | 1263.8 | – | –
310.95 K, m1 = 1.262 | 1114.7 | – | –
311 K, m1 = 3.501 | 1291.7 | – | –
311 K, m1 = 3.757 | 1308.1 | – | –
311.05 K, m1 = 3.17 | 1273.3 | – | –
311.2 K, m1 = 3.118 | 1264.5 | – | –
311.25 K, m1 = 2.131 | 1189.9 | – | –
311.25 K, m1 = 4.728 | 1370.6 | – | –
311.35 K, m1 = 5.134 | 1394 | – | –
311.45 K, m1 = 4.883 | 1377.1 | – | –
311.55 K, m1 = 0.896 | 1081.3 | – | –
311.75 K, m1 = 1.827 | 1164.7 | – | –
311.9 K, m1 = 4.039 | 1325 | – | –
311.95 K, m1 = 5.282 | 1402.5 | – | –
312 K, m1 = 4.97 | 1382.9 | – | –
312.1 K, m1 = 0.6173 | 1054.3 | – | –
312.15 K, m1 = 1.694 | 1151.6 | – | –
312.15 K, m1 = 2.793 | 1240.8 | – | –
312.25 K, m1 = 0.0528 | 997.99 | – | –
312.4 K, m1 = 4.403 | 1348.2 | – | –
312.45 K, m1 = 0.0145 | 993.76 | – | –
312.95 K, m1 = 1.525 | 1136.3 | – | –
313.1 K, m1 = 1.262 | 1113.5 | – | –
313.15 K, m1 = 0.0145 | – | 1532.2 | 0.6666
313.15 K, m1 = 0.0528 | – | 1531.9 | 0.6778
313.15 K, m1 = 0.2491 | – | 1544.5 | 0.7155
313.15 K, m1 = 0.3405 | – | 1546 | –
313.15 K, m1 = 0.5931 | – | – | 0.7972
313.15 K, m1 = 0.6173 | – | 1566.4 | –
313.15 K, m1 = 0.896 | – | 1584.7 | –
313.15 K, m1 = 0.9898 | – | 1591.3 | 0.913
313.15 K, m1 = 1.262 | – | 1607.1 | 1.008
313.15 K, m1 = 1.525 | – | 1625.9 | –
313.15 K, m1 = 1.827 | – | 1647.8 | 1.305
313.15 K, m1 = 2.131 | – | 1667.8 | 1.364
313.15 K, m1 = 2.493 | – | 1688.9 | –
313.15 K, m1 = 2.584 | – | – | 1.616
313.15 K, m1 = 2.793 | – | 1709 | –
313.15 K, m1 = 3.096 | 1262.3 | – | 1.947
313.15 K, m1 = 3.118 | – | 1728.1 | –
313.15 K, m1 = 3.17 | – | 1734.7 | –
313.15 K, m1 = 3.329 | – | – | 2.128
313.15 K, m1 = 3.501 | – | 1751.2 | –
313.15 K, m1 = 3.704 | – | – | 2.435
313.15 K, m1 = 3.757 | – | 1767.8 | –
313.15 K, m1 = 4.039 | – | – | 2.798
313.15 K, m1 = 4.051 | – | 1778.4 | –
313.15 K, m1 = 4.285 | – | 1791.3 | –
313.15 K, m1 = 4.403 | – | 1797.9 | –
313.15 K, m1 = 4.728 | – | – | 3.817
313.15 K, m1 = 4.883 | – | 1823.1 | –
313.15 K, m1 = 4.907 | – | – | 4.176
313.15 K, m1 = 5.134 | – | 1834.3 | –
313.15 K, m1 = 5.282 | – | – | 4.924
313.25 K, m1 = 3.118 | 1263.3 | – | –
313.25 K, m1 = 4.285 | 1340.7 | – | –
313.45 K, m1 = 0.2491 | 1017.9 | – | –
313.5 K, m1 = 2.493 | 1216.4 | – | –
313.6 K, m1 = 2.131 | 1188.5 | – | –
313.7 K, m1 = 0.3405 | 1026.4 | – | –
313.7 K, m1 = 4.883 | 1375.5 | – | –
313.8 K, m1 = 0.896 | 1080.2 | – | –
313.8 K, m1 = 4.051 | 1324 | – | –
314.1 K, m1 = 2.793 | 1239.5 | – | –
314.15 K, m1 = 3.704 | 1303 | – | –
314.15 K, m1 = 5.282 | 1401.1 | – | –
314.25 K, m1 = 2.584 | 1224.2 | – | –
314.45 K, m1 = 0.5931 | 1050.6 | – | –
314.45 K, m1 = 0.6173 | 1053.3 | – | –
314.5 K, m1 = 1.694 | 1150.4 | – | –
314.5 K, m1 = 4.403 | 1346.8 | – | –
